Data on 12 molecules can be found in patent US11912723B2, “KRAS modulators and uses thereof” (Quanta Therapeutics, Inc., priority 2022, dated 2024).

Experiment [1] has as its target T1, GST-tagged KRAS G12D (2-169) (Homo sapiens, UniProt P01116, G12D).
T1 construct: GST-tagged KRAS^G12D (2-169, Reaction Biology, MSC-11-539); purchased Reaction Biology MSC-11-539 (KRAS G12D); MSC-11-502 (SOS1cat)
Description: Nucleotide exchange assay (NEA), HTRF of SOS-mediated GTP-DY-647P1 binding. It is filed as biochemical. The note with it: 5 nM GST-KRAS G12D, 20 nM SOScat, 150 nM GTP; compound 1 h at RT. The method in brief:
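After 1 h RT preincubation of compound with KRAS, SOS1cat (20 nM final) and fluorescent GTP analog (150 nM) were added to 5 nM KRAS; HTRF (anti-GST Tb donor) followed at RT for up to 90 min. % inhibition relative to DMSO and no-SOS1 blank, 4-parameter curve fit.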
A general note: In TR-FRET formats the signal depends on donor and acceptor labels being close together.

In the next experiment the target is T2, KRAS G12D/RAF1 (Homo sapiens, UniProt P01116, G12D).
T2 construct: KRAS (1-169) proteins were expressed in E. coli at 18° C; His6-MBP (N, cleaved yes); made in house; host or cells: E. coli
T2 sequence (P01116 1-169 isoform P01116-2 G12D): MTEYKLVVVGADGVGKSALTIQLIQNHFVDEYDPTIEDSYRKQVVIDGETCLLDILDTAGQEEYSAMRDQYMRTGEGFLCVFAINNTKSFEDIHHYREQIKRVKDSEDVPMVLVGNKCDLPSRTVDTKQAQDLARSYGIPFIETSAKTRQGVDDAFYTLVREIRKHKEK
The experiment in a line: Protein-protein interaction (PPI) HTRF assay KRAS G12D/RAF1. The note with it: KRAS G12D/RAF1, GppNHp-loaded KRAS; 30 minutes pre-incubation. It is filed as binding. On the procedure: Biotinylated KRAS wt and KRAS G12DNV proteins were expressed and purified in conditions similar to those previously reported (Tran, et al., 2021) (Zhang, et al., 2020). Briefly, KRAS (1-169) proteins were expressed in E. coli at 18° C. with an upstream TEV cleavage site (ENLFYQS) followed an Avi tag sequence ([…]). KIRAS expression constructs contained both a His6 and maltose-binding protein (MBP) tags at the N-terminus for Ni-NTA column purification prior to overnight TEV cleavage and MBP column purification. The avi-tagged NRAS expression construct contained both a His6 tag and SUMO cleavage sige at the N-terminus for Ni-NTA column purification followed by His-ULP1 digestion overnight. All avi-tagged RAS proteins were dialyzed into buffer containing ATP, biotin, and BirA followed by purification over a second Ni-NTA column and then run over a size exclusion HiLoad™ 26/600 Superdex™ column in 20 mM HEPES, pH 7.5, 300 mM NaCl, 5 mM MgCl2, and 1 mM TCEP. Fractions containing the protein of interest were pooled, concentrated, and confirmed by intact mass spectrometry. To prepare ‘GTP’ loaded KRAS and NRAS, biotinylated KRAS or NRAS was nucleotide exchanged from GDP-bound protein to GppNHp-bound (Jena Biosciences, NU-401-50) protein in the presence of alkaline phosphatase and excess GppNHp as previously described and the resulting nucleotide content was confirmed by HPLC reverse phase analytical chromatography (Donohue, et al., 2019) (Tran, et al., 2021).
His-tagged RAF1 (52-131) was similarly expressed in E. coli at 18° C. overnight with an upstream TEV cleavage site. His-tagged RAF1 expression construct contained both a His6 and MBP tags at the N-terminus for Ni-NTA column purification followed by MBP-tagged TEV digestion overnight. RAF1 protein samples were further purified over a MBP column followed by a Ni-NTA column and a second MBP column. The fractions containing the protein of interest were pooled, concentrated, and further purified over a HiLoad™ 16/600 Superdex™ 75 pg size exclusion column into 20 mM HEPES, pH8.0, 200 mM NaCl, 5 mM TCEP.
When RAS proteins are in the active GTP-bound conformation, they bind the effector protein RAF1 at the N-terminus Ras-binding domain (RBD, residues 52-131) (Tran, et al., 2021). Homogenous time resolved fluorescence (HTRF) was used to monitor the interaction between wt or mutant KRAS and RAF1 or wt NRAS and RAFT. Compounds were assayed in the presence of KRAS G12D/V and RAF1 versus wt KRAS to assess activity against mutant and w.t. KRAS. Similarly, compounds were then assayed in the presence of w.t. NRAS and RAF1 to assess RAS isoform selectivity. In all assay formats, His-tagged RAF1 protein was incubated with the HTRF donor, anti-6His Tb Cryptate gold (Cisbio 61DB10RDF), and biotinylated RAS proteins were incubated with the HTRF acceptor, streptavidin-d2 (CisBio 610SADLA). The intensity of the fluorescence signal emitted is proportional to binding between the two proteins. The donor solution was prepared by mixing 16 nM His-tagged RAF1 in protein dilution buffer with 1:100 anti-6His Tb cryptate in PPI-Terbium detection buffer. 16 nM biotinylated RAS protein was diluted into protein dilution buffer (50 mM Tris-HCl pH 7.5, 150 mM NaCl, 0.1 mM MgCl2, 1 mM TCEP, 0.005% Tween20) and mixed with 1:2000 Streptavidin-d2 diluted in PPI-Terbium detection buffer (CisBio 61DB10RDF). 50× compound in DMSO was mixed with 16 nM KRAS-acceptor solution and incubated for 30 minutes at room temperature. After compound pre-incubation with KRAS, the RAF1 donor solution was added to the KRAS-acceptor solution and incubated for 1 hour at room temperature. The fluorescence signal emitted was monitored at 665 nm and 615 nm using an Envision multimode plate reader. The HTRF ratio (665/615) was calculated and normalized to 0% inhibition in the absence of compound and 100% inhibition in the presence of untagged RAF1 protein. […]

T1 sequence (P01116 2-169 isoform P01116-2 G12D): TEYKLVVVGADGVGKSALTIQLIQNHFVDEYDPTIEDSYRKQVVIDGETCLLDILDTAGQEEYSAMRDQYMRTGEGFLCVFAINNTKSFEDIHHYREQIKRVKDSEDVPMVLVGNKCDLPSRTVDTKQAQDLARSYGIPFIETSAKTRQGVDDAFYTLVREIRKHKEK

`CN1Cc2c(nc(OC[C@@]34CCCN3C[C@H](F)C4)nc2N2CCC[C@]3(C2)NC(=O)NC3=O)C[C@]12CCCc1ccccc12` [Compound 71, (5R)-9-[(7S)-2-[[(2R,8S)-2-fluoro-1,2,3,5,6,7-hexahydropyrrolizin-8-yl]methoxy]-6-methyl-spiro[5,8-dihydropyrido[4,3-d]pyrimidine-7,1′-tetralin]-4-yl]-1,3,9-triazaspiro[4.5]decane-2,4-dione]: the IC50 in experiment [1] is 0.1 to 1 µM; at KRAS G12D/RAF1 it was more than 100 µM.

In the case of `Cc1noc(-c2cc3n(n2)CCCN(c2nc(OC[C@@]45CCCN4C[C@H](F)C5)nc4c2CN(C)[C@@]2(CCc5cccc(F)c52)C4)C3)n1` [Compound 73, 5-[5-[(7S)-7′-fluoro-2-[[(2R,8S)-2-fluoro-1,2,3,5,6,7-hexahydropyrrolizin-8-yl]methoxy]-6-methyl-spiro[5,8-dihydropyrido[4,3-d]pyrimidine-7,1′-indane]-4-yl]-4,6,7,8-tetrahydropyrazolo[1,5-a][1,4]diazepin-2-yl]-3-methyl-1,2,4-oxadiazole], the IC50 was 0.01 to 0.1 µM in experiment [1] and more than 100 µM at KRAS G12D/RAF1.

For the molecule `Cc1noc(-c2cc3n(n2)CCCN(c2nc(OC[C@@]45CCCN4C[C@H](F)C5)nc4c2CN(C)[C@@]2(CCCc5ccccc52)C4)C3)n1` [Compound 74, 5-[5-[(7S)-2-[[(2R,8S)-2-fluoro-1,2,3,5,6,7-hexahydropyrrolizin-8-yl]methoxy]-6-methyl-spiro[5,8-dihydropyrido[4,3-d]pyrimidine-7,1′-tetralin]-4-yl]-4,6,7,8-tetrahydropyrazolo[1,5-a][1,4]diazepin-2-yl]-3-methyl-1,2,4-oxadiazole], the IC50 in experiment [1] is 0.01 to 0.1 µM; against KRAS G12D/RAF1, more than 100 µM.

For the molecule `CN(C)C(=O)c1nn2c(c1C#N)CN(c1nc(OC[C@@]34CCCN3C[C@H](F)C4)nc3c1CN(C)[C@@]1(CCc4cccc(F)c41)C3)CCC2` [Compound 76, 3-cyano-5-[(7S)-7′-fluoro-2-[[(2R,8S)-2-fluoro-1,2,3,5,6,7-hexahydropyrrolizin-8-yl]methoxy]-6-methyl-spiro[5,8-dihydropyrido[4,3-d]pyrimidine-7,1′-indane]-4-yl]-N,N-dimethyl-4,6,7,8-tetrahydropyrazolo[1,5-a][1,4]diazepine-2-carboxamide], the figures for the IC50 (in experiment [1]; against KRAS G12D/RAF1) were less than 0.01 µM and 10 to 100 µM, respectively.

Consider `CN(C)C(=O)c1nn2c(c1C#N)CN(c1nc(OC[C@@]34CCCN3C[C@H](F)C4)nc3c1CN(C)[C@@]1(CCCc4ccccc41)C3)CCC2` [Compound 77, 3-cyano-5-[(7S)-2-[[(2R,8S)-2-fluoro-1,2,3,5,6,7-hexahydropyrrolizin-8-yl]methoxy]-6-methyl-spiro[5,8-dihydropyrido[4,3-d]pyrimidine-7,1′-tetralin]-4-yl]-N,N-dimethyl-4,6,7,8-tetrahydropyrazolo[1,5-a][1,4]diazepine-2-carboxamide], for which the 50% inhibitory concentration (IC50) in experiment [1] is less than 0.01 µM; at KRAS G12D/RAF1, 10 to 100 µM.

`CN1Cc2c(nc(OC[C@@]34CCCN3C[C@H](F)C4)nc2N2CCCn3nc(C(=O)O)c(Cl)c3C2)C[C@]12CCCc1ccccc12` [Compound 78, 3-chloro-5-[(7S)-2-[[(2R,8S)-2-fluoro-1,2,3,5,6,7-hexahydropyrrolizin-8-yl]methoxy]-6-methyl-spiro[5,8-dihydropyrido[4,3-d]pyrimidine-7,1′-tetralin]-4-yl]-4,6,7,8-tetrahydropyrazolo[1,5-a][1,4]diazepine-2-carboxylic acid]: the values for the IC50 (in experiment [1]; against KRAS G12D/RAF1) were less than 0.01 µM and 10 to 100 µM, respectively.

`CN1Cc2c(nc(OCC3(CN4CCOCC4)CC3)nc2N2C[C@H]3CC[C@@H](C2)N3)C[C@]12CCCc1ccccc12` [Compound 80, 4-[[1-[[(7S)-6-methyl-4-[(1R,5S)-3,8-diazabicyclo[3.2.1]octan-3-yl]spiro[5,8-dihydropyrido[4,3-d]pyrimidine-7,1′-tetralin]-2-yl]oxymethyl]cyclopropyl]methyl]morpholine]: the values for the IC50 (in experiment [1]; at KRAS G12D/RAF1) were 0.01 to 0.1 µM and 10 to 100 µM, respectively.

As for `CN1Cc2c(nc(OC[C@@]34CCCN3C[C@H](F)C4)nc2N2CCCn3nc(-c4nc5ccccc5n4C)cc3C2)C[C@]12CCCc1ccccc12` [Compound 82, (7S)-2-[[(2R,8S)-2-fluoro-1,2,3,5,6,7-hexahydropyrrolizin-8-yl]methoxy]-6-methyl-4-[2-(1-methylbenzimidazol-2-yl)-4,6,7,8-tetrahydropyrazolo[1,5-a][1,4]diazepin-5-yl]spiro[5,8-dihydropyrido[4,3-d]pyrimidine-7,1′-tetralin]], the IC50 was 0.01 to 0.1 µM in experiment [1] and more than 100 µM against KRAS G12D/RAF1.

For `CN1Cc2c(nc(OC[C@@]34CCCN3C[C@H](F)C4)nc2N2CCCn3nc(-c4nc5c(F)cccc5n4C)cc3C2)C[C@]12CCCc1ccccc12` [Compound 83, (7S)-2-[[(2R,8S)-2-fluoro-1,2,3,5,6,7-hexahydropyrrolizin-8-yl]methoxy]-4-[2-(4-fluoro-1-methyl-benzimidazol-2-yl)-4,6,7,8-tetrahydropyrazolo[1,5-a][1,4]diazepin-5-yl]-6-methyl-spiro[5,8-dihydropyrido[4,3-d]pyrimidine-7,1′-tetralin]], the IC50 was 0.01 to 0.1 µM in experiment [1] and more than 100 µM on KRAS G12D/RAF1.

For `CN1Cc2c(nc(OC[C@@]34CCCN3C[C@H](F)C4)nc2N2C[C@H]3CC[C@@H](C2)[C@@H]3N)C[C@]12CCCc1ccccc12` [Compound 85, (1R,5S)-3-[(7S)-2-[[(2R,8S)-2-fluoro-1,2,3,5,6,7-hexahydropyrrolizin-8-yl]methoxy]-6-methyl-spiro[5,8-dihydropyrido[4,3-d]pyrimidine-7,1′-tetralin]-4-yl]-3-azabicyclo[3.2.1]octan-8-amine], the IC50 in experiment [1] is 1 to 20 µM; against KRAS G12D/RAF1, more than 100 µM.

For the molecule `CN1Cc2c(nc(OCC34CCCN3CC(F)C4)nc2N2CC3CCC(C2)C3NC#N)CC12CCCc1ccccc12` [Compound 86, [(1R,5S)-3-[(7S)-2-[[(2R,8S)-2-fluoro-1,2,3,5,6,7-hexahydropyrrolizin-8-yl]methoxy]-6-methyl-spiro[5,8-dihydropyrido[4,3-d]pyrimidine-7,1′-tetralin]-4-yl]-3-azabicyclo[3.2.1]octan-8-yl]cyanamide], the IC50 in experiment [1] is less than 0.01 µM; against KRAS G12D/RAF1, more than 100 µM.

In the case of `CN1Cc2c(nc(OC[C@@]34CCCN3C[C@H](F)C4)nc2N2CCCn3nc(-c4ccccn4)cc3C2)C[C@]12CCCc1ccccc12` [Compound 88, (7S)-2-[[(2R,8S)-2-fluoro-1,2,3,5,6,7-hexahydropyrrolizin-8-yl]methoxy]-6-methyl-4-[2-(2-pyridyl)-4,6,7,8-tetrahydropyrazolo[1,5-a][1,4]diazepin-5-yl]spiro[5,8-dihydropyrido[4,3-d]pyrimidine-7,1′-tetralin]], the IC50 is 0.01 to 0.1 µM in experiment [1] and more than 100 µM on KRAS G12D/RAF1.

In general, IC50 refers to the concentration that inhibits the measured activity by half. Lower therefore signals greater potency in that assay.
